Experimental data: publication PMC6630718, “Discovery of Novel UV-Filters with Favorable Safety Profiles in the 5-Arylideneimidazolidine-2,4-dione Derivatives Group” (Molecules, 2019)

Key:
[1] = In vitro photoprotection study of 2% (w/w) macrogol formulations on PMMA plates
From the text: The composition of formulations and concentration of tested compounds were based on their limited solubility. N-monosubstituted compounds 2a–2e were insoluble at desirable concentrations in the typical solvents used in cosmetic formulations such as alcohols, triacetin, surfactants, and co-surfactants. To dissolve compounds 2a and 2b before incorporation to the formulation DMSO: Tween 20 (1:9 w/w) was used, for less soluble 2c–2e it was necessary to use DMSO alone as solvent. […] Thus the detailed composition of the formulations is as follows: F1–Tween 20 43.2%, PEG-400 25%, PEG-1500 25%, Triacetin 4.8%, tested compound 2%; F2–Tween 20 43.2%, PEG-400 25%, PEG-1500 25%, DMSO 4.8%, tested compound 2%; F3–PEG-400 25%, PEG-1500 25%, DMSO 48%, tested compound 2%. Considering the disadvantages of currently reported macrogol formulations and the low concentration achieved for the tested compounds (2%), we plan to work on cosmetic emulsions containing the most promising derivatives at higher concentrations as well as required excipients including preservatives, antioxidants, etc. This research will be carried out in the near future.
Tested compounds and commercial UV filters as reference standards were incorporated to a neutral macrogel formulation in the concentration of 2%. Prior to the incorporation, compounds 3a–3e and 4f–4h and reference UV-filters were dissolved in a triacetin:Tween 20 (1:9) solvent system. For compounds 2a–2e it was necessary to use DMSO. The final composition of the macrogol formulations is presented in the photoprotective activity section.
In vitro photoprotection study was performed according to EN ISO 24443:2012 [71] with slight modifications. Formulation with tested compound (32.5 mg) was applied on a polymethylmethacrylate plate (PMMA) with the application area 25 cm^2 and 5 µm roughness value to simulate the skin surface (Schonberg GmbH, Hamburg, Germany). As a reference a PMMA plate treated with approximately 15 µL of glycerin was used. Measurements were carried out by reflectance spectrophotometry with SPF-290AS Analyser (Solar Light Company, Glenside, PA, USA) equipped with integrating sphere controlled by WinSPF version X.X. software. For each sample two plates were prepared, absorbance measures were performed on 6 different positions of the plate from 290 to 400 nm with 1 nm steps. The results were expressed as an average of data from 12 scans.

[2] = Ultraviolet spectroscopy in methanol solutions; format: physicochemical; conditions: for Absorption Range: scan range 290–400 nm
Protocol: Spectra with a scan range of 290–400 nm were recorded in 50 or 25 μM methanol solutions, in 1 cm path length, 1.5 mL quartz cuvettes on a U-2800 double beam spectrophotometer (Hitachi, Tokyo, Japan) controlled by UV Solution version 2.2 software. The molar extinction coefficient at maximum absorption (εmax) of tested compounds was determined in methanol as the slope of the linear regression of absorbance vs. concentration of tested compound (from 10 to 50 μM or 2.5 to 30 μM).

[3] = Photostability in methanol solutions (solar light simulator); format: physicochemical; design: λmax pre-irradiation: unit not given beside the values; conditions: methanol solution; for % of initial AUC post-irradiation / λmax post-irradiation: 1h irradiation at 500 W/m2
Protocol: (§1) The photostability evaluation of compounds was performed both in methanol solutions and in macrogol formulations. Irradiation of samples according to previous studies was conducted for 1 h at 500 W/m^2 (cumulative dose of ultraviolet radiation 218 kJ/m^2) with solar light simulator (Suntest CPS+, Atlas, Linsengericht, Germany) equipped with an optical filter cutting off wavelengths shorter than 290 nm and IR-block filter to neutralize thermal effects. The UV absorption spectrum of the samples were analysed post-irradiation and compared with pre-irradiation results. UPLC-MS/MS analyses were also performed.
(§2) Methanol solutions were tested at concentration 25 or 50 µM in quartz cuvettes with the PTFE stopper to prevent evaporation or leaking of the solvent. Macrogol formulations (2% w/w) were tested on PMMA plates (1.3 mg/cm^2). After post-irradiation measure of UV absorption, exposed and unexposed plates were washed with 5 mL of methanol, then mixtures were filtered and analysed by UPLC-MS/MS. All analyses were performed in duplicates.

[4] = In vitro stability in mouse liver microsomes; format: in vitro ADME; conditions: mouse liver microsomes
Protocol: Mouse liver microsomes (MLMs) were used to investigate the phase I metabolism of selected compounds (2c, 2d, 3b, 4g, 5a) and the reference substance BP-2. Samples composed of test compound (20 µM), MLMs (0.8 mg/mL) and potassium phosphate buffer (100 mM, pH 7.4) were preincubated prior to addition of NADPH-regenerating system. NADPH-regenerating system contained NADP, glucose-6-phosphate, glucose-6-phosphate dehydrogenase and potassium phosphate buffer (100 mM, pH 7.4). Control incubations were performed in the absence of the NADPH-regenerating system and in case of esters (2c, 2d, 3b and 4g) without the mouse liver microsomes solution to determine spontaneous hydrolysis. Incubations were conducted at 37 °C for at least 15 min up to 60 min. The reactions were stopped by the addition of 250 μL ice-cold methanol containing internal standard PTX (20 μM). The mixture was then centrifuged. Supernatant analysis was performed using UPLC/MS (Waters Corporation). The assays were repeated two times. The in vitro half times (t1/2) for test compounds were determined from the slope of the linear regression of ln % parent compound remaining versus incubation time. The calculated t1/2 was incorporated into the following equation to obtain intrinsic clearance: (Clint) = (volume of incubation [µL]/ protein in the incubation [mg]) × 0.693 / t1/2 [74].

[5] = Ames MPF Penta 2 microplate mutagenicity assay, TA100; format: cell-based; conditions: Salmonella typhimurium; TA100, +S9, 1.25 µg/mL; read-out: FIB (fold induction over baseline), positive control
Protocol: (§3) The assay is a liquid microplate modification of the traditional Salmonella test. During the procedure, bacteria are exposed to different concentrations of a test compound for 90 min in a medium containing sufficient histidine (S. typhimurium) or tryptophan (E. coli) to support cell divisions. Then, the cultures are diluted in pH indicator medium lacking histidine or tryptophan and aliquoted into 48 wells of a 384-well plate. Within 48 hours, cells that have undergone reversion to amino acid prototrophy will grow into colonies. Bacterial metabolism reduces pH of the medium, changing the color of that well from purple to yellow (https://www.xenometrix.ch).
(§4) The following strains were used in the study: S. typhimurium TA98, TA100, TA1535, TA1537 and E. coli wp2 uvrA[pKM101]. TA100, TA1535 and E. coli strains are used for the detection of base substitution mutations, whereas TA98 and TA1537 are utilized for the detection of frameshift mutations. S. typhimurium strains have GC base pairs, whereas E. coli strain has AT base pair at their primary reversion site and detect certain oxidizing mutagens, cross-linking agents and hydrazines.
(§5) The test procedure provided by Xenometrix (https://www.xenometrix.ch) and described earlier was followed. Briefly, the bacterial strains were grown overnight in exposure medium and exposed to test compounds 4g and 3b in 24-well plates for 90 min at 37 °C with agitation in the absence (–S9) or presence (+S9) of 4.5% phenobarbital/ β-naphthoflavone-induced rat liver S9. Compounds 4g and 3b were dissolved in DMSO and tested at final concentrations of 0.1, 0.2 and 0.5 mM. After the preincubation, the cultures were diluted in the indicator medium and the contents of each 24-well culture were distributed into 48 wells on a 384-well plate and incubated further for 48 h at 37 °C without agitation. After the exposure, the number of wells containing bacteria was scored by eye for yellow wells. Positive and negative controls were included in the assay, and all doses were done in triplicate.
(§6) Pure DMSO was used as the negative control.
(§7) The fold increase of revertants relative to the solvent control was determined by dividing the mean number of positive wells at each dose by the solvent control at baseline. The solvent control at baseline was defined as the mean number of positive wells in the solvent control plus one standard deviation (SD). When an increase of more than 2-fold relative to the baseline at more than one dose with a dose–response is observed the sample is classified as positive, whereas when no response >2 times the baseline and no dose–response is stated the sample is negative.

[6] = Ames MPF Penta 2 microplate mutagenicity assay, TA98; format: cell-based; conditions: Salmonella typhimurium, read-out: FIB (fold induction over baseline), positive control
Protocol: as §3, §4, §5, §6, §7

[7] = Photostability in macrogol formulations on PMMA plates (solar light simulator); format: physicochemical
Protocol: After irradiation of thin layer of formulations applied on PMMA plates, their photoprotective parameters were determined and compared with the pre-irradiation results. The study gives an overview on functional photostability of the tested compounds. It is an important test, because the photostability of some compounds in low concentrated solutions may meaningfully differ from results obtained for higher concentrations used in sunscreen products. […] In the present study both UVB and UVA-absorbers were tested, so the changes in SPFin vitro, UVA PF and AUC after irradiation are taken into account as a measure of photostability.
as §1, §2

[8] = in vitro; conditions: Salmonella typhimurium
Protocol: as §3, §4, §5, §6, §7

[9] = Ames MPF Penta 2 microplate mutagenicity assay, TA1535; conditions: Salmonella typhimurium, FIB (fold induction over baseline), positive control, TA1535, –S9, 100 µg/mL
Protocol: as §3, §4, §5, §6, §7

[10] = 2% (w/w) macrogol formulation F1 (Triacetin 4.8%)
[11] = 2% (w/w) macrogol formulation F1 (Tween 20, PEG-400, PEG-1500, Triacetin 4.8%)
[12] = 2% (w/w) macrogol formulation F2 (DMSO 4.8%)
[13] = after 1 h irradiation at 500 W/m^2, formulation F2 (DMSO 4.8%)
[14] = after 1 h irradiation at 500 W/m^2, formulation F3 (DMSO 48%)
[15] = after 1 h irradiation at 500 W/m^2, formulation F1

Row | Structure (SMILES) | UVA PF [1, 10] | UVA/UVB Ratio [1, 10] | λc (critical wavelength) [1, 10] [nm] | SPFin vitro [1, 11] | εmax [2] [M⁻¹ cm⁻¹] | λmax [2] [nm] | Absorption Range [2] | λmax pre-irradiation [3] | % of initial AUC post-irradiation [3] [%] | λmax post-irradiation [3] | also measured
1 | COc1ccc(C(=O)CC(=O)c2ccc(C(C)(C)C)cc2)cc1 [Avobenzone, butyl methoxy-dibenzoylmethane, reference compound] | 7.56 ± 0.19 | 2.49 ± 0.03 | 381 | 2.23 ± 0.03 | 36820 | 358 | 290–393 nm |  |  |  | 
2 | COc1ccc(/C=C2\NC(=O)NC2=O)cc1OC [Compound 1e, (Z)-5-(3,4-Dimethoxybenzylidene)imidazolidine-2,4-dione] |  |  |  |  | 28440 | 341 | 290–384 nm | 341 | 95.38 | 346 | Probable Transformation [4]: O-dealkylation; half-life at 20 µM ([4]; mouse, pH 7.4, mouse liver microsomes 0.8 mg/mL, 20 µM compound, NADPH-regenerating system, 37 °C, read-out: t ½): 1.02 h; microsomal CLint at 20 µM ([4]; mouse, pH 7.4, mouse liver microsomes, calculated from t1/2): 14 µL/min/mg
3 | Nc1ccc2cc3ccccc3cc2c1 [Compound 2-AA, 2-aminoanthracene, reference compound] |  |  |  |  |  |  |  |  |  |  | fold induction at 90 min, 1.25 µg/mL [5]: 3.1; fold induction at 90 min, 0.5 µg/mL ([6]; TA98, +S9, 0.5 µg/mL): 12.6
4 | O=[N+]([O-])c1ccc2c(c1)Cc1ccccc1-2 [Compound 2-NF, 2-nitrofluorene, reference compound] |  |  |  |  |  |  |  |  |  |  | fold induction at 90 min, 2 µg/mL ([6]; S. typhimurium TA98 without S9 (–S9), TA98, –S9, 2 µg/mL): 25.3
5 | CCOC(=O)CN1C(=O)N/C(=C\c2ccc(OC)cc2)C1=O [Compound 2b, Ethyl (Z)-2-(4-(4-methoxybenzylidene)-2,5-dioxoimidazolidin-1-yl)acetate] |  |  |  |  | 31920 | 334 | 290–372 nm | 334 | 95.67 | 341 | SPFin vitro [1, 12]: 3.20 ± 0.07; UVA PF [1, 12]: 4.29 ± 0.11; UVA/UVB Ratio [1, 12]: 1.20 ± 0.00; λc (critical wavelength) [1, 12]: 363 nm; improvement of the functional photostability ([7]; DMSO in formulation reduced from 48 to 4.8%): 30.2%; % of Initial AUC [7, 13]: 59.55%; % of Initial SPFin vitro [7, 13]: 57.19%; % of Initial UVA PF [7, 13]: 54.31%; % of Initial AUC [7, 14]: 35.28%; % of Initial SPFin vitro [7, 14]: 36.51%; % of Initial UVA PF [7, 14]: 24.13%; decrease of tested parameters (SPFin vitro, UVA PF, AUC) after irradiation ([7]; formulation with DMSO 48% (F3), extreme values): 75.9%; melting point: 178 to 179 °C
6 | Nc1c2ccccc2nc2ccccc12 [Compound 9-AAc, 9-aminoacridine, reference compound] |  |  |  |  |  |  |  |  |  |  | fold induction at 90 min, 15 µg/mL [8]: 48
7 | NNc1ccn([C@@H]2O[C@H](CO)[C@@H](O)[C@H]2O)c(=O)n1 [Compound N4-ACT, N4-aminocytidine, reference compound] |  |  |  |  |  |  |  |  |  |  | fold induction at 90 min, 100 µg/mL [9]: 40
8 | CCCCC(CC)COC(=O)C=Cc1ccc(OC)cc1 (stereo not shown) [EHMC, ethylhexyl methoxycinnamate, reference compound] | 1.34 ± 0.05 | 0.05 ± 0.01 | 321 | 4.96 ± 0.33 | 22990 | 309 | 290–339 nm | 309 | 63.26 | 307 | % of Initial AUC [7, 15]: 78.45%; % of Initial SPFin vitro [7, 15]: 80.83%; % of Initial UVA PF [7, 15]: 88.76%; decrease of AUC after irradiation [3]: 36.7%
9 | CCCCC(CC)COC(=O)C(C#N)=C(c1ccccc1)c1ccccc1 (stereo not shown) [Octocrylene, octocrylene, reference compound] | 1.20 ± 0.03 | 0.12 ± 0.01 | 327 | 2.87 ± 0.16 | 13650 | 302 | 290–349 nm |  |  |  | 
